Each structure is given as a SMILES string.

The nature of assay [1]: Inhibition of N-terminal His-6 tagged VIM-2 (27 to 266 residues) (unknown origin) expressed in Escherichia coli Transetta (DE3) using FC5 as fluorescence substrate preincubated for 10 mins followed by substrate addition by microplate reader analysis. On the set-up: species or system Bacteria.
A short description of assay [2]: Inhibition of Metallo-beta-lactamase VIM-1 (unknown origin) using FC5 as fluorescence substrate preincubated for 10 mins followed by substrate addition by microplate reader analysis.
Assay [3] has as its target Metallo-beta-lactamase type 2 (Bacteria, UniProt C7C422). Nature of the assay: Inhibition of NDM-1 (1 to 270 residues) (unknown origin) expressed in Escherichia coli Transetta (DE3) using FC5 as fluorescence substrate preincubated for 10 mins followed by substrate addition by microplate reader analysis.
Assay [4] in a line: Inhibition of Metallo-beta-lactamase IMP-1 (unknown origin) using FC5 as fluorescence substrate preincubated for 10 mins followed by substrate addition by microplate reader analysis.
A short description of assay [5]: Inhibition of Metallo-beta-lactamase VIM-5 (unknown origin) using FC5 as fluorescence substrate preincubated for 10 mins followed by substrate addition by microplate reader analysis.

Sequence of Metallo-beta-lactamase type 2 (C7C422 whole entry, the tested form may be a part): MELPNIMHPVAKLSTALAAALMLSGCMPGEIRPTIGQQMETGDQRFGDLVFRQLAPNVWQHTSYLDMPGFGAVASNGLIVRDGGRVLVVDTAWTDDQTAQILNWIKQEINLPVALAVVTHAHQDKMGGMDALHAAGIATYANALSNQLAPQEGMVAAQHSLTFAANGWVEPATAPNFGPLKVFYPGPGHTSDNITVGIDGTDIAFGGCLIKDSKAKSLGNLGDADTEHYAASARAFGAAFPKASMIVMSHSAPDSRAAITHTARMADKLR

Regarding `O=C(O)c1nc2ccccc2n1Cc1ccccc1`, the IC50 is > 300 µM in assay [1], > 100 µM in assay [2], > 100 µM in assay [3] and > 100 µM in assay [4].

`O=C(O)c1nccn1CCc1cccc(F)c1`: the half-inhibitory concentration (IC50) in assay [1] was 0.11 µM; in assay [2], 3.67 µM; in assay [5], 0.66 µM; in assay [3], > 100 µM; in assay [4], 441 µM.

Regarding `O=C(O)c1ncsc1Cc1ccccc1`, the concentration for half-maximal inhibition (IC50) turned out to be 2.06 µM in assay [1]; 6.31 µM in assay [2]; 4.37 µM in assay [5]; 43.7 µM in assay [3]; 7.8 µM in assay [4].

On to `O=C(O)c1nccn1CCc1ccc(-c2ccc3ccccc3c2)cc1`, for which the half-inhibitory concentration (IC50) in assay [1] was 4.97 µM; in assay [2], 96.7 µM; in assay [5], 0.22 µM; in assay [3], > 100 µM; in assay [4] it was 202 µM.

With `O=C(O)c1ncsc1CCc1ccccc1F`, the half-inhibitory concentration (IC50) in assay [1] was 0.035 µM; in assay [2], 1.82 µM; in assay [5], 1.17 µM; in assay [3] it was > 100 µM; in assay [4], 121 µM.

`CCC(c1ccccc1)n1ccnc1C(=O)O` (stereo not given): the IC50 in assay [1] was 2.73 µM; in assay [2], 30.8 µM; in assay [5], 2.59 µM; in assay [3], > 300 µM; in assay [4], > 300 µM.

For `Cc1ncsc1CCn1ccnc1C(=O)O`, the IC50 was 0.2 µM in assay [1]; 31.6 µM in assay [2]; 1.99 µM in assay [5]; > 100 µM in assay [3]; > 100 µM in assay [4].

In the case of `O=C(O)c1ncsc1CCc1ccc(Br)cc1`, the IC50 in assay [1] was 0.1 µM; in assay [2] it was 8.37 µM; in assay [5] it was 0.44 µM; in assay [3], > 100 µM; in assay [4] it was > 100 µM.

As for `O=C(O)c1nccn1CCc1ccc(-c2ccncc2)cc1`, the half-inhibitory concentration (IC50) came to 0.11 µM in assay [1]; 2.17 µM in assay [2]; 0.17 µM in assay [5]; 54.6 µM in assay [3]; 10.2 µM in assay [4].

Regarding `Cc1ccc(CCn2ccnc2C(=O)O)cc1`, the concentration for half-maximal inhibition (IC50) in assay [1] was 0.48 µM; in assay [2], 15.7 µM; in assay [5], 6.28 µM; in assay [3] it was > 100 µM; in assay [4], > 100 µM.

With `O=C(O)c1nccn1CCc1cccs1`, the IC50 in assay [1] was 0.12 µM; in assay [2] it was 1.07 µM; in assay [5], 0.64 µM; in assay [3], > 100 µM; in assay [4] it was 7.97 µM.

Regarding `COc1cccc(CCc2scnc2C(=O)O)c1`, the IC50 in assay [1] was found to be 0.028 µM; in assay [2] it was 4.77 µM; in assay [5] it was 3.23 µM; in assay [3] it was 29.9 µM; in assay [4] it was 61.6 µM.

Regarding `O=C(O)c1ncsc1CCc1ccc(C(F)(F)F)cc1`, the half-inhibitory concentration (IC50) was 0.21 µM in assay [1]; 14.5 µM in assay [2]; 1.55 µM in assay [5]; > 100 µM in assay [3]; 87.8 µM in assay [4].

`O=C(O)c1nccn1CCc1ccc(Cl)cc1`: the 50% inhibitory concentration (IC50) in assay [1] is 0.1 µM; in assay [2] it was 8.37 µM; in assay [5] it was 0.44 µM; in assay [3], > 100 µM; in assay [4] it was > 100 µM.

For `COc1ccc(CCn2ccnc2C(=O)O)cc1OC`, the half-maximal inhibitory concentration (IC50) is 0.31 µM in assay [1]; 76.3 µM in assay [2]; 15.1 µM in assay [5]; > 100 µM in assay [3]; 326 µM in assay [4].

`O=C(O)c1ncsc1CCc1cccc(Br)c1`: the concentration for half-maximal inhibition (IC50) is 0.024 µM in assay [1]; 1.64 µM in assay [2]; 1.45 µM in assay [5]; > 100 µM in assay [3]; > 100 µM in assay [4].

`O=C(O)c1ncsc1CCc1ccc(F)cc1`: the IC50 is 0.047 µM in assay [1]; 4.09 µM in assay [2]; 0.41 µM in assay [5]; > 100 µM in assay [3]; 56.8 µM in assay [4].

Take `O=C(O)c1nccn1CCc1ccc(-c2cccc3ccccc23)cc1`: the IC50 in assay [1] is 1.46 µM; in assay [2], > 100 µM; in assay [5], 0.089 µM; in assay [3], ~200 µM; in assay [4], ~67 µM.

Consider `COc1cccc(CCn2ccnc2C(=O)O)c1`, for which the IC50 in assay [1] was 0.38 µM; in assay [2] it was 9.39 µM; in assay [5], 10.7 µM; in assay [3], > 100 µM; in assay [4], 70.2 µM.

Turning to `O=C(O)c1ncsc1CCc1cccc(C(F)(F)F)c1`, the IC50 in assay [1] was 0.56 µM; in assay [2], 2.08 µM; in assay [5], 2.69 µM; in assay [3], > 100 µM; in assay [4], 112 µM.

As for `COc1ccc(CCn2ccnc2C(=O)O)cc1`, the IC50 was 0.35 µM in assay [1]; 33.7 µM in assay [2]; 1.64 µM in assay [5]; > 100 µM in assay [3]; 4.48 µM in assay [4].

Turning to `O=C(O)c1nccn1CCCc1ccccc1`, the half-maximal inhibitory concentration (IC50) in assay [1] was 0.63 µM; in assay [2], 0.63 µM; in assay [5], 0.83 µM; in assay [3], > 100 µM; in assay [4] it was 10.8 µM.

Turning to `O=C(O)c1nccn1CCc1cccc(Cl)c1`, the IC50 in assay [1] was 0.09 µM; in assay [2] it was 0.96 µM; in assay [5], 108 µM; in assay [3], > 100 µM; in assay [4] it was > 100 µM.

As for `O=C(O)c1ncoc1Cc1ccccc1`, the IC50 in assay [1] was 41.7 µM; in assay [2], > 100 µM; in assay [5], 11.8 µM; in assay [3], > 100 µM; in assay [4], > 100 µM.

For `O=C(O)c1nncn1Cc1ccccc1`, the concentration for half-maximal inhibition (IC50) in assay [1] and in assay [3] was > 100 µM each time.

As to `O=C(O)c1nccn1CCc1ccccn1`, the IC50 in assay [1] was 0.2 µM; in assay [2], 3.83 µM; in assay [5] it was 0.71 µM; in assay [3], 18.9 µM; in assay [4] it was > 100 µM.

`O=C(O)c1nccn1CCNS(=O)(=O)c1ccccc1`: the half-inhibitory concentration (IC50) in assay [1] is 5.95 µM; in assay [2] it was > 100 µM; in assay [5], 62.7 µM; in assay [3] it was > 100 µM; in assay [4], > 100 µM.

In the case of `O=C(O)c1ncsc1CCc1ccc(C(c2ccccc2)(c2ccccc2)c2ccccc2)cc1`, the 50% inhibitory concentration (IC50) was 0.23 µM in assay [1]; 9.56 µM in assay [2]; 0.65 µM in assay [5]; > 100 µM in assay [3]; 46.8 µM in assay [4].

With `Nc1ccc(CCn2ccnc2C(=O)O)cc1`, the IC50 in assay [1] was 0.33 µM; in assay [2] it was 3.73 µM; in assay [5], 0.45 µM; in assay [3], > 100 µM; in assay [4] it was 4.9 µM.

Take `O=C(O)c1ncsc1CCc1ccccc1`: the IC50 came to 0.22 µM in assay [1]; 0.42 µM in assay [2]; 0.43 µM in assay [5]; 82.4 µM in assay [3]; 2.92 µM in assay [4].

Take `Cc1c(C(=O)O)ncn1Cc1ccccc1`: the IC50 in assay [1], in assay [2], in assay [5], in assay [3] and in assay [4] was > 100 µM throughout.

On to `O=C(O)c1ncn(Cc2ccccc2)n1`, for which the IC50 in assay [1] and in assay [3] was > 100 µM throughout.

For `O=C(O)c1nccn1CCc1ccc2c(c1)CCO2`, the half-maximal inhibitory concentration (IC50) is 0.48 µM in assay [1]; 190 µM in assay [2]; 96.2 µM in assay [5]; > 100 µM in assay [3]; > 100 µM in assay [4].

`CC(Cn1ccnc1C(=O)O)c1ccccc1` (stereo not given): the half-maximal inhibitory concentration (IC50) stood at 0.19 µM in assay [1]; 3.29 µM in assay [2]; 1.08 µM in assay [5]; 203 µM in assay [3]; 261 µM in assay [4].

Turning to `O=C(O)c1nccn1CCc1ccc(Br)cc1`, the IC50 in assay [1] was 0.06 µM; in assay [2] it was 3.5 µM; in assay [5] it was 0.1 µM; in assay [3], > 100 µM; in assay [4], > 100 µM.

In the case of `O=C(O)c1nccn1CCOc1ccccc1`, the IC50 in assay [1] is 5.49 µM; in assay [2] it was 14.4 µM; in assay [5], 0.52 µM; in assay [3], > 100 µM; in assay [4], > 100 µM.

For the molecule `O=C(O)c1nccn1CCS(=O)(=O)c1ccccc1`, the IC50 is 2.87 µM in assay [1]; 112 µM in assay [2]; 4.42 µM in assay [5]; > 100 µM in assay [3]; > 100 µM in assay [4].

With `O=C(O)c1nccn1CCc1ccccc1`, the IC50 in assay [1] came to 0.11 µM; in assay [2] it was 2.32 µM; in assay [5] it was 1.59 µM; in assay [3] it was 301 µM; in assay [4] it was 483 µM.

On to `CC(c1ccccc1)n1ccnc1C(=O)O` (stereo not given), for which the half-maximal inhibitory concentration (IC50) in assay [1] is 0.76 µM; in assay [2] it was 8.18 µM; in assay [5], 3.81 µM; in assay [3], > 200 µM; in assay [4], 4.12 µM.

For the molecule `O=C(Cn1ccnc1C(=O)O)c1ccccc1`, the IC50 in assay [1] is 0.63 µM; in assay [2] it was 5.02 µM; in assay [5], 1.85 µM; in assay [3], > 300 µM; in assay [4], > 100 µM.

Take `O=C(O)c1ncnn1Cc1ccccc1`: the IC50 in assay [1] and in assay [3] was > 100 µM each time.

With `O=C(O)c1nccn1CCc1ccc(F)cc1`, the IC50 was 0.14 µM in assay [1]; 3.11 µM in assay [2]; 1.93 µM in assay [5]; > 100 µM in assay [3]; > 100 µM in assay [4].

Usually IC50 stands for the concentration needed to halve the response being measured. Low readings indicate inhibition by little substance, high ones a need for much substance.

The values above are taken from ChEMBL document CHEMBL5360522, “Design, Synthesis, and Biological Evaluation of New 1H-Imidazole-2-Carboxylic Acid Derivatives as Metallo-β-Lactamase Inhibitors” (Bioorg Med Chem, 2022).
